The experiment has as its target S. pneumoniae Topoisomerase IV ATPase (ParE) (Streptococcus pneumoniae serotype 4, UniProt Q59961). Put plainly: S. pneumoniae Topoisomerase IV ATPase inhibition. It is filed as biochemical. As to conditions: values marked * are an average of two or more data points, read-out: % Inh (13 μM) of S. pneumoniae Topoisomerase IV ATPase. The procedure, abridged:
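Phosphate release by ParE ATPase from S. pneumoniae read colorimetrically (malachite green, 650 nm), enzyme 1.25 nM, ATP 160 μM, salmon sperm DNA present, buffer 20 mM Tris pH 8.0 with 8 mM MgCl2. IC50 over 10 compound concentrations, EDTA (20 μM) and DMSO controls defining inhibition range.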
Sequence of S. pneumoniae Topoisomerase IV ATPase (ParE) (Q59961 whole entry): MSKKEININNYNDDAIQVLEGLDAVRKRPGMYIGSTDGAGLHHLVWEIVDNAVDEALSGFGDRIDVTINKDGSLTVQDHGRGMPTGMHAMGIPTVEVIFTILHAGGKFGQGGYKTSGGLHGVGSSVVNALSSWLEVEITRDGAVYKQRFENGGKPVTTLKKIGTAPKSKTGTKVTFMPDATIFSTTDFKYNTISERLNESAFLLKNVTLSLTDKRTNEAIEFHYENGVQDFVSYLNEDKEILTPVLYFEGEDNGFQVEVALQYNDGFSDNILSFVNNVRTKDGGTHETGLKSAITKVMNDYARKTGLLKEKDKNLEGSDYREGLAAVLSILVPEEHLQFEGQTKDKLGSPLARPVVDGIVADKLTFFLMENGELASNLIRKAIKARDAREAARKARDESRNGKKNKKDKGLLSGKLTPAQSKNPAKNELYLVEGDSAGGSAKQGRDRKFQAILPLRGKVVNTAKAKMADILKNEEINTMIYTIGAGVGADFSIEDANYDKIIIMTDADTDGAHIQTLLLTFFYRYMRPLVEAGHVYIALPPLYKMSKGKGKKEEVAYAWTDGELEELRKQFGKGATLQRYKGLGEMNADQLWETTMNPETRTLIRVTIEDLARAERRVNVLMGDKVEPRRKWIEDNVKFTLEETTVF
On to `Fc1ccc(Nc2ncc(-c3cncnc3)c(NCc3cccnc3)n2)cc1Cl` [Example 39, N^2-(3-chloro-4-fluorophenyl)-N^4-(pyridin-3-ylmethyl)-5-pyrimidin-5-ylpyrimidine-2,4-diamine], for which the inhibition at 13 µM is 63%. On to `COc1cc(Nc2ncc(-c3cncc(C(=O)O)c3)c(-n3nc(C(F)(F)F)cc3C)n2)cc(C(F)(F)F)c1` [Example 913, 5-(2-(3-methoxy-5-(trifluoromethyl)phenylamino)-4-(5-methyl-3-(trifluoromethyl)-1H-pyrazol-1-yl)pyrimidin-5-yl)nicotinic acid], for which the inhibition at 13 µM worked out at 100%. For `COCCCNc1nc(Nc2ccc(F)c(Cl)c2)ncc1-c1cncc(S(C)(=O)=O)c1` [Example 987, N2-(3-chloro-4-fluorophenyl)-N4-(3-methoxypropyl)-5-(5-(methylsulfonyl)pyridin-3-yl)pyrimidine-2,4-diamine] the value was 30%; for `O=C(O)/C=C/c1cccc(-c2cnc(Nc3ccc(F)c(Cl)c3)nc2N2CCCC2)c1` [Example 294, (E)-3-(3-(2-(3-chloro-4-fluorophenylamino)-4-(pyrrolidin-1-yl)pyrimidin-5-yl)phenyl)acrylic acid], 73.2%; for `CN(C)CCCNc1nc(Nc2cc(Cl)cc(Cl)c2)ncc1-c1ccc(C(=O)O)s1` [Example 339, 5-(2-(3,5-dichloro-phenylamino)-4-(3-(dimethylamino)propylamino)pyrimidin-5-yl) thiophene-2-carboxylic acid], 84.3%.

As for `COCCCNc1nc(Nc2ccc(F)c(Cl)c2)ncc1-c1nc(-c2ccc(C#N)cc2)cs1` [Example 498, 4-(2-{2-[(3-chloro-4-fluorophenyl)amino]-4-[(3-methoxypropyl)amino]pyrimidin-5-yl}-1,3-thiazol-4-yl)benzonitrile], the inhibition at 13 µM was 41%. Under `O=S(=O)(c1cncc(-c2cnc(Nc3ccc(F)c(Cl)c3)nc2-n2ccc(C(F)(F)F)n2)c1)N1CCOCC1` [Example 1035] stands 51%. For `Cc1cc(C(F)(F)F)nn1-c1nc(Nc2ccc(F)c(Cl)c2)ncc1-c1cnc(OC(C)C)c(C(=O)O)c1` [Example 960, 5-(2-(3-chloro-4-fluorophenylamino)-4-(5-methyl-3-(trifluoromethyl)-1H-pyrazol-1-yl)pyrimidin-5-yl)-2-isopropoxynicotinic acid], the inhibition at 13 µM was determined as 100%. With `O=C(O)c1cncc(-c2cnc(Nc3cccc(F)c3)nc2-n2ccc(C(F)(F)F)n2)c1` [Example 641, 5-{2-[(3-fluorophenyl)amino]-4-[3-(trifluoromethyl)-1H-pyrazol-1-yl]pyrimidin-5-yl}pyridine-3-carboxylic acid], the inhibition at 13 µM came to 100%. Under `Cc1cc(C(F)(F)F)nn1-c1nc(Nc2ccc(F)c(Cl)c2)ncc1-c1cncc(S(C)(=O)=O)c1` [Example 989, N-(3-chloro-4-fluorophenyl)-4-(5-methyl-3-(trifluoromethyl)-1H-pyrazol-1-yl)-5-(5-(methylsulfonyl)pyridin-3-yl)pyrimidin-2-amine] stands 100%; under `CCOC(=O)/C=C/c1cccc(-c2cnc(Nc3cc(C)c(Cl)cc3OC)nc2NCCCN(C)C)c1` [Example 343, (E)-ethyl 3-(3-(2-(4-chloro-2-methoxy-5-methylphenylamino)-4-(3-(dimethylamino)propylamino)pyrimidin-5-yl)phenyl)acrylate], -22.3%; under `CN1CCC(Oc2ncc(-c3cnc(Nc4ccc(F)c(Cl)c4)nc3-n3ccc(C(F)(F)F)n3)cc2C(=O)O)C1` (centres unmarked) [Example 789, 5-{2-[(3-chloro-4-fluorophenyl)amino]-4-[3-(trifluoromethyl)-1H-pyrazol-1-yl]pyrimidin-5-yl}-2-[(1-methylpyrrolidin-3-yl)oxy]pyridine-3-carboxylic acid], 99%. Under `CS(=O)(=O)CCOc1ncc(-c2cnc(Nc3ccc(F)c(Cl)c3)nc2-n2ccc(C(F)(F)F)n2)cc1C(=O)O` [Example 966, 5-(2-(3-chloro-4-fluorophenylamino)-4-(3-(trifluoromethyl)-1H-pyrazol-1-yl)pyrimidin-5-yl)-2-(2-(methylsulfonyl)ethoxy)nicotinic acid] stands 100%; under `COc1cc(Nc2ncc(-c3cccc(/C=C/C(=O)O)c3)c(-n3ccc(C(F)(F)F)n3)n2)cc(S(C)(=O)=O)c1` [Example 659, (2E)-3-[3-(2-{[3-methoxy-5-(methylsulfonyl)phenyl]amino}-4-[3-(trifluoromethyl)-1H-pyrazol-1-yl]pyrimidin-5-yl)phenyl]prop-2-enoic acid], 100%. For `CC(=O)N1CCC(Nc2nc(Nc3ccc(F)c(Cl)c3)ncc2-c2cncnc2)CC1` [Example 35, 1-[4-[[2-[(3-chloro-4-fluorophenyl)amino]-5-pyrimidin-5-ylpyrimidin-4-yl]amino]piperidin-1-yl]ethanone] the value was 58.3%; for `O=C(O)/C=C/c1cccc(-c2cnc(Nc3ccc(F)c(Cl)c3)nc2N[C@H]2CCOC2)c1` [Example 942, (S, E)-3-(3-(2-(3-chloro-4-fluorophenylamino)-4-(tetrahydrofuran-3-ylamino)pyrimidin-5-yl)phenyl)acrylic acid], 100%. Take `COC(=O)[C@@H](C)Nc1nc(Nc2ccc(F)c(Cl)c2)ncc1-c1cncnc1` [Example 56, methyl (2R)-2-[[2-[(3-chloro-4-fluorophenyl)amino]-5-pyrimidin-5-ylpyrimidin-4-yl]amino]propanoate]: the inhibition at 13 µM was 46.3%. `O=C(O)c1cncc(-c2cnc(Nc3cc(F)cc(F)c3)nc2N2CCOCC2)c1` [Example 388, 5-[2-(3,5-Difluoro-phenylamino)-4-morpholin-4-yl-pyrimidin-5-yl]nicotinic acid]: the inhibition at 13 µM is 72%. As to `COCCCNc1nc(Nc2ccc(F)c(Cl)c2)ncc1-c1ccc2ncc(C(=O)O)cc2c1` [Example 305, 6-(2-(3-chloro-4-fluorophenylamino)-4-(3-methoxypropylamino)-pyrimidin-5-yl)quinoline-3-carboxylic acid], the inhibition at 13 µM was found to be 89.2%.

As to `O=C(O)c1cncc(-c2cnc(Nc3ccc(F)c(Cl)c3)nc2-n2cc(Cl)cn2)c1` [Example 309, 5-{2-[(3-chloro-4-fluorophenyl)amino]-4-(4-chloro-1H-pyrazol-1-yl)pyrimidin-5-yl}pyridine-3-carboxylic acid], the inhibition at 13 µM amounted to 69.4%. Turning to `CCS(=O)(=O)NC(=O)c1cc(-c2cnc(Nc3cc(C)cc(C)c3)nc2-n2nc(C(F)(F)F)cc2C)cnc1OC` [Example 823], the inhibition at 13 µM was 100%. Under `CCC1COC(C)CN1c1nc(Nc2ccc(F)c(Cl)c2)ncc1-c1cncc(C(=O)O)c1` (centres unmarked) [Example 1058, 5-(2-(3-Chloro-4-fluorophenylamino)-4-(5-ethyl-2-methylmorpholino)pyrimidin-5-yl)nicotinic acid] stands 87%. For `CONC(=O)c1cc(-c2cnc(Nc3ccc(F)c(Cl)c3)nc2-n2ccc(C(F)(F)F)n2)cnc1OC` [Example 1101, 5-(2-(3-chloro-4-fluorophenylamino)-4-(3-(trifluoromethyl)-1H-pyrazol-1-yl)pyrimidin-5-yl)-N,2-dimethoxynicotinamide] the value was 82%; for `CCOC(=O)/C=C/c1cccc(-c2cnc(Nc3ccc(F)c(Cl)c3)nc2-n2cccn2)c1` [Example 1112, ethyl (E)-3-[3-[2-[(3-chloro-4-fluorophenyl)amino]-4-pyrazol-1-ylpyrimidin-5-yl]phenyl]prop-2-enoate], 71%. Under `Fc1ccc(Nc2ncc(-c3cncnc3)c(NCCOc3ccccc3)n2)cc1Cl` [Example 55, N^2-(3-chloro-4-fluorophenyl)-N^4-(2-phenoxyethyl)-5-pyrimidin-5-ylpyrimidine-2,4-diamine] stands 44.4%. Regarding `COc1cc(Nc2ncc(-c3cnc(OC)c(-c4n[nH]c(=O)o4)c3)c(-n3nc(C(F)(F)F)cc3C)n2)cc(OC)c1` [Example 805, 5-(5-{2-[(3,5-dimethoxyphenyl)amino]-4-[5-methyl-3-(trifluoromethyl)-1H-pyrazol-1-yl]pyrimidin-5-yl}-2-methoxypyridin-3-yl)-1,3,4-oxadiazol-2(3H)-one], the inhibition at 13 µM was found to be 100%. Under `O=C(O)c1cncc(-c2cnc(Nc3ccc(F)c(Cl)c3)nc2-n2cc(-c3ccccn3)cn2)c1` [Example 535] stands 100%.

For the compound `N#Cc1cccc(Nc2ncc(-c3cccc(/C=C/C(=O)O)c3)c(-n3ccc(C(F)(F)F)n3)n2)c1` [Example 692, (2E)-3-(3-{2-[(3-cyanophenyl)amino]-4-[3-(trifluoromethyl)-1H-pyrazol-1-yl]pyrimidin-5-yl}phenyl)prop-2-enoic acid], the inhibition at 13 µM came to 97%.

Turning to `CCOC(=O)c1cncc(-c2cnc(Nc3ccc(F)c(Cl)c3)nc2NCCCNC(=O)c2cnc(C)cn2)c1` [Example 141, ethyl 5-(2-(3-chloro-4-fluorophenylamino)-4-(3-(5-methylpyrazine-2-carboxamido)propyl-amino)pyrimidin-5-yl)nicotinate], the inhibition at 13 µM came out at 63.3%. For `Fc1ccc(Nc2ncc(-c3cncnc3)c(N3CCC(F)CC3)n2)cc1Cl` [Example 64, N-(3-chloro-4-fluorophenyl)-4-(4-fluoropiperidin-1-yl)-5-pyrimidin-5-ylpyrimidin-2-amine] the value was 65.4%. For `COc1cc(F)cc(Nc2ncc(-c3cncc(C(=O)O)c3)c(N3CCOCC3)n2)c1` [Example 394, 5-[2-(3-Fluoro-5-methoxy-phenylamino)-4-morpholino-4-yl-pyrimidin-5-yl]-nicotinic acid] the value was 94%.

On to `OCC1CCCN(c2nc(Nc3ccc(F)c(Cl)c3)ncc2-c2cncnc2)C1` (centres unmarked) [Example 61, [1-[2-[(3-chloro-4-fluorophenyl)amino]-5-pyrimidin-5-ylpyrimidin-4-yl]piperidin-3-yl]methanol], for which the inhibition at 13 µM stood at 74.8%.
